PMC12040169 (PLOS Biology, 2025)

experiment: in vitro; conditions: human, hela cells, % viability

Row | Compound | viability at 28.5 h, 10 µM
1 | COc1cncc(-c2cnc3[nH]c(=O)n(C4CCCCC4)c3n2)c1 [CBK064230] | 97.8%
2 | Cc1nn(CC(=O)NC2CCCCC2)c(=O)c2cc3ccsc3n12 [CBK284080] | 94.9%
3 | O=C(O)CCn1c2ccccc2c2ccccc21 [CBK000208] | 87.7%
4 | OCC1CCCN1c1cc(Cl)nc2ccnn12 (stereo not shown) [CBK037011] | 95.7%
5 | CCOc1cc(CN2CCN(C/C=C/c3ccccc3)CC2)ccc1OC [CBK261573] | 87.2%
6 | CN1CCC(N2CCN(C(=O)NCCOc3ccccc3)CC2)CC1 [CBK156098] | 86.9%
7 | O=C1N=C(NC2CC3CCC2C3)SC12CCC2 (stereo not shown) [CBK073933] | 96.2%
8 | O=C(c1ccc(N2CCCC2)cc1)N1CCc2sccc2C1c1ccco1 (stereo not shown) [CBK285707] | 102%
9 | O=C(c1ccoc1)N1CCC2(CCCN(Cc3ccc4ccccc4c3)C2)C1 (stereo not shown) [CBK132811] | 90.1%
10 | COc1ccc(CCNC(=O)CCn2cncn2)cc1 [CBK305881] | 105%
11 | Cc1c(Cl)c([N+](=O)[O-])nn1CCCC(=O)Nc1cc(Br)ccc1O [CBK268875] | 93.1%
12 | Cc1cc(C(F)(F)F)nn1CC(=O)Nc1sc2c(c1C#N)CCC(C)C2 (stereo not shown) [CBK304619] | 92.1%
13 | Cc1cc(C)n(CC2CCCCN2Cc2ccccn2)n1 (stereo not shown) [CBK304853] | 86.7%
14 | [2H]C(C(=O)NCc1ccc2c(c1)CCC2)n1cc(-c2ccc(CN3CCC(C)CC3)cc2)nn1 (stereo not shown) [CBK166081-L1] | 97.7%
15 | CC(=O)Nc1ccc(S(=O)(=O)N2CCN(c3cc4c(cc3[N+](=O)[O-])n(C)c(=O)n4C)CC2)cc1 [CBK267338] | 91.9%
16 | COc1ccc(CCC(=O)N2CCCCC2c2ncc(-c3cccc(F)c3)[nH]2)cc1OC (stereo not shown) [CBK291148] | 90.3%
17 | CCOc1ccc(-n2c(SCC(=O)Nc3cc(C(=O)O)ccc3Cl)nc3ccccc3c2=O)cc1 [CBK297512] | 109%
18 | CC(=O)N1CCC(NC(=O)c2cccc(C(N)=O)c2)CC1 [CBK297747] | 115%
19 | CC(=O)Nc1cccc(C(=O)NCC(c2cccs2)N(C)C)c1 (stereo not shown) [CBK304583] | 86.7%
20 | Cc1cc(NC(=O)CN(C)c2ncccc2C#N)no1 [CBK304182] | 77.7%
21 | COC(=O)C(NC(=O)c1cnc(-c2ccc(Cl)cc2)c(-c2ccc(O)cc2)c1)c1ccccc1 (stereo not shown) [CBK036723] | 90.6%
22 | Clc1ccc2c(c1)OCC[C@@H]2Oc1cncc(N2CCNCC2)n1 [CBK172313G] | 86.2%

Row | Compound | viability at 28.5 h, 10 µM
23 | Nc1nn2c(c1Cc1c(Cl)cccc1Cl)OCCC2 [CBK088843] | 92.8%
24 | CCCNC(=O)Cn1nc(C)n2c(cc3ccsc32)c1=O [CBK284061] | 78.2%
25 | O=C(Cn1ccc2ccnc(-c3cccs3)c21)NCc1ccncc1 [CBK284734] | 86.5%
26 | COc1ccc2ccccc2c1[S+]([O-])NC1CCCCC1 (stereo not shown) [CBK022400] | 80.7%
27 | Cc1cc(C)cc(NS(=O)(=O)c2ccc(NC(=O)C(C)Oc3ccc(Cl)cc3Cl)cc2)c1 (stereo not shown) [CBK264894] | 108%
28 | O=C(c1cnccc1C(F)(F)F)N1Cc2ccccc2C1 [CBK200323] | 105%
29 | OCC1CCCN1c1cncc(-c2cccc3ccccc23)n1 (stereo not shown) [CBK065509] | 91.1%
30 | CNC(=O)Cn1nc(C)c2cnn(-c3ccccc3)c2c1=O [CBK287669] | 92.8%
31 | CN(C)c1ccc(/C=C/c2noc(-c3ccccc3O)n2)cc1 [CBK268438] | 109%
32 | CC(C)c1cc(C(=O)N2CCNC(c3ccccc3)C2)nc2ncnn12 (stereo not shown) [CBK306533] | 91.9%
33 | CCN(CC)c1ccc(SC)n1C [CBK020929] | 104%
34 | COc1ccc(S(=O)(=O)N2CCC(C(=O)O)CC2)cc1C(=O)O [CBK092181] | 91.4%
35 | c1cc(COc2cncc(N3CCCC3)n2)cs1 [CBK115669] | 102%
36 | OCc1ccccc1-c1cncc(NCc2cccs2)n1 [CBK065345] | 104%
37 | COc1cc(CNCc2cccnc2)cc(Cl)c1OCc1cccs1 [CBK270026C] | 96.2%
38 | Cc1ccc(S(=O)(=O)Nc2ccc(Nc3cc(-c4ccsc4)ncn3)cc2)cc1 [CBK037792] | 96.5%
39 | COc1ccc(CN2CCC(Cc3ccccc3-c3ccc(C)cc3C)(C(=O)O)CC2)cc1 [CBK286421] | 88.5%
40 | Cc1csc2c(C3CCN(C(=O)c4cc[nH]n4)CC3)nc(C)n12 [CBK285245] | 91.9%
41 | Cc1cc(-c2cc(=O)n(Cc3ccccc3C)nc2-c2ccco2)on1 [CBK282878] | 96.7%
42 | COc1ccc2c(c1)CCc1sc(NS(=O)(=O)c3cccc(Cl)c3C)nc1-2 [CBK200033] | 84.3%
43 | COc1cc(CNc2ccc(N3CCOCC3)cc2)ccc1OCc1ccc(Cl)cc1Cl [CBK074516] | 93.1%
44 | COc1ccc([C@@]23CCN(C(=O)Nc4ccc(F)c(F)c4F)C[C@@H]2CN(C)C3)cc1OC [CBK074305T] | 106%

Row | Compound | viability at 28.5 h, 10 µM
45 | CN1C[C@@H](NS(C)(=O)=O)C[C@H]1c1nc(-c2ccc3c(c2)OCO3)no1 [CBK288875] | 114%
46 | COc1cc(CN2CCN(C(=O)c3cccc4ccccc34)CC2)cc(OC)c1O [CBK263477] | 103%
47 | CC(=O)Nc1cccc(-c2cn3ccnc3c(N3CCN(C)CC3)n2)c1 [CBK037930] | 95.2%
48 | Cc1ccccc1C(=O)NCC(=O)Nc1ccc(Cl)nc1 [CBK091335] | 103%
49 | N#Cc1ccccc1CSc1nnc(-c2ccco2)n1-c1ccccc1 [CBK267270] | 91.8%
50 | O=C(NCCSCc1c(F)cccc1Cl)Nc1ccccc1 [CBK265340] | 90.2%
51 | c1ccc2nc(N3CCCC3)c(Sc3nccs3)nc2c1 [CBK093794] | 110%
52 | CCc1[nH]nc2c1C1(CN3CCC1CC3)C(C#N)=C(N)O2 (stereo not shown) [CBK267454] | 101%
53 | O=C(O)c1cccc(Nc2ncnc3ccccc23)c1 [CBK073042] | 87.8%
54 | OCc1nnc2c3ccccc3c(-c3ccccc3)nn12 [CBK269927] | 94.2%
55 | Cc1ccc(-c2noc([C@@H]3Cc4[nH]cnc4CN3C(=O)CCC(=O)O)n2)cc1 [CBK288958] | 96.3%
56 | CC(Sc1nc2ccccc2c(=O)n1C1CC1)C(=O)N1CCOCC1 (stereo not shown) [CBK306045] | 79.5%
57 | O=C(COc1ccccc1)N1CCN(Cc2ccccn2)CC1 [CBK073265G] | 86.1%
58 | C#CCOc1cncc(Cl)n1 [CBK113370] | 87.7%
59 | Cc1ccccc1-c1ccccc1CC1(C(N)=O)CCN(C(=O)CC2CCCCC2)CC1 [CBK285723] | 103%
60 | COc1ccc(C(NC(=O)C2CCN(CCn3cnc4c3c(=O)n(C)c(=O)n4C)CC2)c2ccco2)cc1 (stereo not shown) [CBK148308] | 85.8%
61 | O=C(CCCc1nc(-c2ccc(Cl)cc2)no1)NCc1cccnc1 [CBK269415] | 90.4%
62 | O=C(Nc1ccc(Br)cc1)C1CCCN1S(=O)(=O)c1ccc(Cl)cc1 (stereo not shown) [CBK155481] | 88.4%
63 | COc1ccc(-c2cc(C(=O)NCC(O)CO)cnc2-c2ccc(Cl)cc2)cn1 (stereo not shown) [CBK036645] | 94%
64 | CC(=O)Nc1cccc(-c2cnc(NCc3ccc4c(c3)OCO4)c(C(=O)NCC3COc4ccccc4O3)c2)c1 (stereo not shown) [CBK138473T] | 116%
65 | Clc1ccc(Nc2ncnc3c2cnn3-c2ccc(Cl)cc2)cc1 [CBK287356] | 86.1%
66 | Cc1cc(C(=O)Nc2cc(-c3nc4ncccc4o3)ccc2Cl)ccc1[N+](=O)[O-] [CBK268700] | 95.1%

Row | Compound | viability at 28.5 h, 10 µM
67 | COc1ccc([C@@]23CC[C@@H](NC(=O)N(C)c4ccc(C)cc4)C[C@@H]2N(C)CC3)cc1OC [CBK045681T] | 89.2%
68 | O=C(O)c1cccc(-c2nc(-c3ccc(S(=O)(=O)N4CCOCC4)cc3)cs2)c1 [CBK297730] | 85.8%
69 | CCOC(=O)c1cnn2c(O)cc(CN(Cc3cccs3)C3CC3)nc12 [CBK305625] | 96.9%
70 | O=C(NCCCn1ccnc1)N1CCN(Cc2ccc(Cl)cc2)CC1 [CBK305894] | 101%
71 | CC(/C(=N/O)c1ccccc1)C(O)c1ccccn1 (stereo not shown) [CBK022993] | 83.3%
72 | O=C(CCC1CCCC1)N1C[C@@H]2CCCCN(CC3CC3)[C@@H]2C1 [CBK285531] | 94%
73 | O=C(/C=C\c1cn(-c2ccccc2)nc1-c1cccc([N+](=O)[O-])c1)n1nnc2ccccc21 [CBK265273] | 104%
74 | Cc1nc(CN2CCN(C(=O)NCCc3cnn(C)c3)CC2)cs1 [CBK305614] | 81.3%
75 | Fc1cccc(COc2nc3ccccc3n3nnnc23)c1 [CBK288198] | 114%
76 | COCCn1c(SCC(=O)N2CCCc3ccccc32)nc(O)cc1=O [CBK304191] | 59.5%
77 | O=C(CSc1nc2ccccc2c(=O)[nH]1)NCCO [CBK266469] | 96.2%
78 | CN1CCN(C)C(COc2nccc(C(F)(F)F)n2)C1 (stereo not shown) [CBK113298] | 95.2%
79 | Cc1cc(O)nc(C(C)N2CCCN(CC(F)(F)F)CC2)n1 (stereo not shown) [CBK305491] | 88.6%
80 | Cc1ccc(OCC(=O)Nc2ccc(N3CCN(Cc4ccccc4)CC3)cc2)cc1C [CBK266085] | 101%
81 | O=C(c1cc(F)cc(F)c1)N1CCn2c(nnc2C2CC2)C1 [CBK283772] | 95.9%
82 | O=C(CN1CCC(NC(=O)c2cccs2)CC1)NCc1ccccc1F [CBK304901] | 97.2%
83 | Cc1ccc2c(c1)C(C)(c1ccccc1)CC(C)(C)N2C(=O)CSc1nncn1C (stereo not shown) [CBK022397] | 98.8%
84 | O=C(Nc1ccccc1-c1ccccc1)C1CN(S(=O)(=O)c2ccccc2)CCN1S(=O)(=O)c1ccccc1 (stereo not shown) [CBK265902] | 91.1%
85 | O=C(NCc1ccccc1)C(=O)NNC(=O)C12CC3CC(CC(C3)C1)C2 [CBK262951] | 94.9%
86 | Cc1c(C(=O)Nc2ccc(S(=O)(=O)N(C)Cc3ccccc3)cc2)cccc1[N+](=O)[O-] [CBK267534] | 109%
87 | O=S(=O)(c1ccc(Cl)c(S(=O)(=O)N2CCOCC2)c1)c1ccc(Cl)c(S(=O)(=O)N2CCOCC2)c1 [CBK261369] | 112%
88 | O=C(Cn1c(NCCO)nc2ccccc21)c1ccc([N+](=O)[O-])cc1 [CBK262139B] | 100%
